Where two headings read alike, the source gives them in different places.
Experiments:
CYP2C19 = biological target: T1, CYP2C19 (Homo sapiens, UniProt P33261); test: CYPs inhibition in pooled human liver microsomes, probe substrate S-mephenytoin; type: in vitro ADME
T1 construct: 0.2 mg/mL human liver microsomes was pre-incubated in 180 μL reaction mixture; from tissue; host or cells: pooled human liver microsomes
Outline: (§1)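 Test articles pre-incubated 10 min at 37 °C with a probe-substrate cocktail in pooled human liver microsomes. Reaction then started with NADPH and run 10 min. Metabolites quantified by LC-MS/MS; IC50 from 3-parameter logistic fit of % control activity.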

JAK1 = biological target: T2, JAK1 (Homo sapiens, UniProt P23458); test: JAK1 microfluidic kinase assay (Caliper EZ Reader II, FAM labeled peptide substrate); type: biochemical
T2 construct: purchased Carna Biosciences
T2 sequence (P23458 whole entry): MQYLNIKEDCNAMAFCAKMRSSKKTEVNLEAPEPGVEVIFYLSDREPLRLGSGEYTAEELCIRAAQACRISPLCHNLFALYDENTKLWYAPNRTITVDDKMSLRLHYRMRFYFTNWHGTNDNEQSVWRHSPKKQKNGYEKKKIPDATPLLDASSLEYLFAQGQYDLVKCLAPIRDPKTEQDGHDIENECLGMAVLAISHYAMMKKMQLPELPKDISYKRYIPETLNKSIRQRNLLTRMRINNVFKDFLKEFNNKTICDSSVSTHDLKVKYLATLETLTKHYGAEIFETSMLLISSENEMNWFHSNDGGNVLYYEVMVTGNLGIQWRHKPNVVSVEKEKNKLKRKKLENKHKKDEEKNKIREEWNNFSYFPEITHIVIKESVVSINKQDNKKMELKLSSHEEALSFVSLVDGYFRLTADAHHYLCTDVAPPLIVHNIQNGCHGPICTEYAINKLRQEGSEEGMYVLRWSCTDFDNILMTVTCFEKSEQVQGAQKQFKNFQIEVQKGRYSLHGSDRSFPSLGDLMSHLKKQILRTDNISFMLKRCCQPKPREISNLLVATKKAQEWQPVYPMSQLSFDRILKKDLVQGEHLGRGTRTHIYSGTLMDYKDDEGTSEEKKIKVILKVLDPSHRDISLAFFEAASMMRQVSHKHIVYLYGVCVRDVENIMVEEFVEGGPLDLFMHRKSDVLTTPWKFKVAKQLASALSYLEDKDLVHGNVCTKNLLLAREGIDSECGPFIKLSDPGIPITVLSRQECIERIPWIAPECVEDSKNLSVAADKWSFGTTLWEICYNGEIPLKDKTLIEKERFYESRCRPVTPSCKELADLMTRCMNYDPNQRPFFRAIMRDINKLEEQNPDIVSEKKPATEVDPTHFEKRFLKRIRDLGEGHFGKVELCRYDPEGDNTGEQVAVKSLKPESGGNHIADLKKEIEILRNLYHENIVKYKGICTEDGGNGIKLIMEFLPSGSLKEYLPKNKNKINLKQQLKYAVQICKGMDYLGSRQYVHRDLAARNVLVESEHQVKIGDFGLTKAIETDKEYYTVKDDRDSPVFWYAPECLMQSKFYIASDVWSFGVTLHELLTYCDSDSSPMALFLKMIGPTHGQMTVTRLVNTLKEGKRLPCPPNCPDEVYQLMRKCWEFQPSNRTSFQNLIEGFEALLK
Outline: (§2)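 Microfluidic mobility-shift assay on Caliper EZ Reader II, FAM-labelled peptide phosphorylation, in 50 mM HEPES, 0.01% Brij35, 10 mM MgCl2, 2 mM DTT, 1% DMSO; enzyme conditions set for 10% substrate conversion.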

[1] = Liver microsomes study, Phase I stability (HLM); type: in vitro ADME, human; conditions: pH 7.4; human liver microsomes 0.5 mg/mL, 1 μM test article; read-out: HLM Clint
Outline: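 Phase I turnover was followed by LC/MS/MS of parent compound remaining at 0, 10, 30 and 90 min in NADPH-fortified rat or human microsomes, with cold acetonitrile quench. Half-life and intrinsic clearance were derived from the log-linear depletion slope and the inverse protein concentration.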

JAK2 = biological target: T3, JAK2 (Homo sapiens, UniProt O60674); test: JAK2 microfluidic kinase assay (Caliper EZ Reader II, FAM labeled peptide substrate); type: biochemical
T3 construct: purchased Carna Biosciences
T3 sequence (O60674 whole entry): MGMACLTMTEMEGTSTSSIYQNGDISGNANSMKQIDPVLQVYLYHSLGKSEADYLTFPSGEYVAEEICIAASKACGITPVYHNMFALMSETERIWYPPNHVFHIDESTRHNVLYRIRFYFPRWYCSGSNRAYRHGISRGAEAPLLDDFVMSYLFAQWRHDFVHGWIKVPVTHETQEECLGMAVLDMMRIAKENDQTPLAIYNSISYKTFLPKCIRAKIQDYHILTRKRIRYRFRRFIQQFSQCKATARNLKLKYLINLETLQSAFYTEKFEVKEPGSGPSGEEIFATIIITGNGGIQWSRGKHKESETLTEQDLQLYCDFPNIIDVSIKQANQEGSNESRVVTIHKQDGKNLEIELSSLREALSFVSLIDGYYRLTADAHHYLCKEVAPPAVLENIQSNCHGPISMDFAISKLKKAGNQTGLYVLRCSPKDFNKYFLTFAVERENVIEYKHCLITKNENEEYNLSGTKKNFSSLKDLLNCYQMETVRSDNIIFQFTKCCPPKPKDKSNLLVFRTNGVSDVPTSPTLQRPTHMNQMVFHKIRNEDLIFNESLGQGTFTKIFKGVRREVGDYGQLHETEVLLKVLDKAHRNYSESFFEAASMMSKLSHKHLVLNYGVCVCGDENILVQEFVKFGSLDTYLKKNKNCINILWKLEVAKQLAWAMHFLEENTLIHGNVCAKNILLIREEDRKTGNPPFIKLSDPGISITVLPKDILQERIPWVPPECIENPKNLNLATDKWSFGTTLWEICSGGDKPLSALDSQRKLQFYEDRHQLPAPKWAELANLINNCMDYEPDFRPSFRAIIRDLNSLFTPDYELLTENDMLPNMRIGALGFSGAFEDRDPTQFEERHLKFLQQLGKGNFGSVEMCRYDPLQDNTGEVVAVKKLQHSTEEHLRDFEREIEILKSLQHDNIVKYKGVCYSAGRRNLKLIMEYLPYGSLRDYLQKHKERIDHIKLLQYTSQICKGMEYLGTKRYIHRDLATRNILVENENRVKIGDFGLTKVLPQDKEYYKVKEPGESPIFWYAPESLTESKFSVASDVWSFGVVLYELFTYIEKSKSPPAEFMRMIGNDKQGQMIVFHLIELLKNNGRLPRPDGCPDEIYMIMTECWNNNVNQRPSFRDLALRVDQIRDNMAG
Outline: as §2

TYK2 = biological target: T4, TYK2 (Homo sapiens, UniProt P29597); test: TYK2 microfluidic kinase assay (Caliper EZ Reader II, FAM labeled peptide substrate); type: biochemical; conditions: IC50 TYK2 ([…]) (1 mM ATP), TYK2 […], 1 mM ATP
T4 construct: purchased Carna Biosciences
T4 sequence (P29597 whole entry): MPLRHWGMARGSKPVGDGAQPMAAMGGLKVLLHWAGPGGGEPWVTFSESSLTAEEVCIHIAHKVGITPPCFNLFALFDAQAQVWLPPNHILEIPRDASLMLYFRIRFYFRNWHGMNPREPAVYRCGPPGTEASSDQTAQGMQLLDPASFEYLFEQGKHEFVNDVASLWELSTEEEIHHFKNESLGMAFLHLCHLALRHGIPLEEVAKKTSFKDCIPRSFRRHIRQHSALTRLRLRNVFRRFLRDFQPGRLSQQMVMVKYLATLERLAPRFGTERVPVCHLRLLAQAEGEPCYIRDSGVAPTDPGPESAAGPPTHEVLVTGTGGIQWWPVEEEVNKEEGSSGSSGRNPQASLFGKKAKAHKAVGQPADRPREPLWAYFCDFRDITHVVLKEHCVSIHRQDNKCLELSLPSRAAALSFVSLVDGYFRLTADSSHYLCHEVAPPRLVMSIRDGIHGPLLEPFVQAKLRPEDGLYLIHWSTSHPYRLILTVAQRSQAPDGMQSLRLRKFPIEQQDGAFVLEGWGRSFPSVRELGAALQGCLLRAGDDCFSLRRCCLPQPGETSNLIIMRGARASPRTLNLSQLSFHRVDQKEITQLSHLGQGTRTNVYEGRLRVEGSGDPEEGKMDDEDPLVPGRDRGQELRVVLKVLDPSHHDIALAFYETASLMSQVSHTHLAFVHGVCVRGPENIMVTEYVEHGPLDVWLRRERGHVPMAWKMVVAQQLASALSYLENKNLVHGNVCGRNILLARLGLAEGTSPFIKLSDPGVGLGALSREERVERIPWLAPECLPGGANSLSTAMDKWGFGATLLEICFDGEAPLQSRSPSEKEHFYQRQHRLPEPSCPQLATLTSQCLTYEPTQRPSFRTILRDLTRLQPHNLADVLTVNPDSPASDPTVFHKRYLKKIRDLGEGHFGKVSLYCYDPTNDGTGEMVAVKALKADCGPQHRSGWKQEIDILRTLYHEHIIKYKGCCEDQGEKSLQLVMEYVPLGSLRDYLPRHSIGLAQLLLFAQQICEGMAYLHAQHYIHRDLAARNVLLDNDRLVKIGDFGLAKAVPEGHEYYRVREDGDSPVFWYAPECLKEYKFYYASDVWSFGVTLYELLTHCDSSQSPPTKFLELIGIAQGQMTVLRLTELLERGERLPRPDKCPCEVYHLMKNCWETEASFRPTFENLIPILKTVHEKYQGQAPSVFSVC
Outline: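 First, serially diluted compounds (top 5 μM, 3-fold steps, 1% DMSO final) sit with enzyme 10 min at ambient temperature. Then the kinase reaction runs in HEPES buffer with 10 mM MgCl2 for 120, 20, 30 or 10 min (JAK1, JAK2, JAK2V617F, TYK2). Finally 50 mM EDTA quenches it.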

CYP2D6 = biological target: T5, CYP2D6 (Homo sapiens, UniProt P10635); test: CYPs inhibition in pooled human liver microsomes, probe substrate Dextromethorphan; type: in vitro ADME
T5 construct: 0.2 mg/mL human liver microsomes was pre-incubated in 180 μL reaction mixture; from tissue; host or cells: pooled human liver microsomes
T5 sequence (P10635 whole entry): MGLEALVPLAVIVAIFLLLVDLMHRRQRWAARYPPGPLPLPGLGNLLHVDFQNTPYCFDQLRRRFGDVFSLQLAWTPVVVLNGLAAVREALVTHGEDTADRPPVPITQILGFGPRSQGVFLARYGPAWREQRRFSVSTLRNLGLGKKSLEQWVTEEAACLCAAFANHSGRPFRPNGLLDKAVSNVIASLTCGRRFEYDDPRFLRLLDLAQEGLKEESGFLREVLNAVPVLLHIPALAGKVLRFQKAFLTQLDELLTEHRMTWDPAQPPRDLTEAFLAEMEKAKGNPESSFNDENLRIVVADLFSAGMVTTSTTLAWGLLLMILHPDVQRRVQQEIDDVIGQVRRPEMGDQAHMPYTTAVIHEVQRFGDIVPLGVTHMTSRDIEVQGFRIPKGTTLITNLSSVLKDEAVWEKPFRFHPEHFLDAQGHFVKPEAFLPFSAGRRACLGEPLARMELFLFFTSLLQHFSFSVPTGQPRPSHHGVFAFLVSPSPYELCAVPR
Outline: as §1

JAK2V617F = biological target: T6, JAK2V617F (Homo sapiens, UniProt O60674, V617F); test: JAK2V617F microfluidic kinase assay (Caliper EZ Reader II, FAM labeled peptide substrate); type: biochemical; conditions: JAK2V617F 2.5 nM, 1 mM ATP
T6 construct: purchased Carna Biosciences
T6 sequence (O60674 whole entry V617F): as the sequence (O60674 whole entry) above, with V617F counted along it
Outline: as §2

[2] = IC50 JAK1 (5 nM) (1 m MATP), JAK1 5 nM, 1 mM ATP
[3] = IC50 JAK2 ([…]) (1 mM ATP), 1 mM ATP
[4] = IC50 JAK2 ([…]) (Km ATP), Km ATP
[5] = IC50 JAK1 (10 nM) (Km ATP), JAK1 10 nM, Km ATP

T1 sequence (P33261 whole entry): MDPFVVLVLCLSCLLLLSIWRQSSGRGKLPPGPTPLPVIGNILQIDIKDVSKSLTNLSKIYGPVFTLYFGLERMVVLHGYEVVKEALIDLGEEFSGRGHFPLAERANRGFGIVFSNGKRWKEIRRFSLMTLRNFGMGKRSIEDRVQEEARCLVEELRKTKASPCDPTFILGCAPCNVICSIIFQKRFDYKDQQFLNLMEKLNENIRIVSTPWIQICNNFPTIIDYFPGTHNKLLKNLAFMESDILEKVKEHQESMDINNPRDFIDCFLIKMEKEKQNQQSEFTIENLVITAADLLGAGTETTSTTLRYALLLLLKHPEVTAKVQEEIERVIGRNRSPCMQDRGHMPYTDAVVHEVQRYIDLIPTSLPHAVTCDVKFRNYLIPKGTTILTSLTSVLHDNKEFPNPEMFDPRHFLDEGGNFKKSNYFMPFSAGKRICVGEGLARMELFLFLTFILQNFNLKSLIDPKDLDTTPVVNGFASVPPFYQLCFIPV

Row | IC50 (CYP2C19) [nM] | IC50 (JAK1; [2]) [nM] | microsomal CLint at 1 μM [1] [µL/min/mg] | IC50 (JAK2; [3]) [nM] | IC50 (TYK2) [nM] | IC50 (CYP2D6) [nM] | IC50 (JAK2V617F) [nM] | IC50 (JAK1; read-out: IC50 JAK1 (5 nM) (1 m MATP), JAK1 5 nM, 1 mM ATP) [nM] | IC50 (JAK2; [4]) [nM] | IC50 (JAK1; [5]) [nM] | Structure (SMILES)
1 | > 50000 | 1.95 | 12 | 0.42 | 2.29 | 42000 |  |  |  |  | CC[C@@H](C#N)NC(=O)c1ccc(-c2nc(Nc3cnn(C4CCNCC4)c3)ncc2Cl)cc1 [Example 183, (S)-4-(5-chloro-2-((1-(piperidin-4-yl)-1H-pyrazol-4-yl)amino)pyrimidin-4-yl)-N-(1-cyanopropyl)benzamide]
2 |  | 5.81 |  | 4.73 | 52.8 |  | 34.8 |  |  |  | CC[C@@H](C#N)NC(=O)c1ccc(-c2nc(Nc3cnn(C4CC4)c3)ncc2Cl)cc1 [Example 61, (S)-4-(5-chloro-2-((1-cyclopropyl-1H-pyrazol-4-yl)amino)pyrimidin-4-yl)-N-(1-cyanopropyl)benzamide]
3 | > 50000 | 8.45 |  | < 0.25 | 5.15 | > 50000 | 0.96 |  |  |  | Cc1cnc(Nc2cnn(C3CCN(C(=O)CO)CC3)c2)nc1-c1ccc(C(=O)N[C@@H](C)C#N)cc1 [Example 119, (S)—N-(1-cyanoethyl)-4-(2-((1-(1-(2-hydroxyacetyl)piperidin-4-yl)-1H-pyrazol-4-yl)amino)-5-methylpyrimidin-4-yl)benzamide]
4 | > 50000 | 5.94 |  | 1.16 | 65 | > 50000 |  |  |  |  | C[C@@H](C#N)NC(=O)c1ccc(-c2nc(Nc3cnn(C4CCNCC4)c3)ncc2Cl)cc1 [Example 165, (S)-4-(5-chloro-2-((1-(piperidin-4-yl)-1H-pyrazol-4-yl)amino)pyrimidin-4-yl)-N-(1-cyanoethyl)benzamide]
5 | > 50000 | 11.2 | 15 | 0.57 | 29 | > 50000 | 45.2 |  |  |  | C[C@@H](C#N)NC(=O)c1ccc(-c2nc(Nc3cnn(C4CCN(C)CC4)c3)ncc2Cl)cc1 [Example 43, (S)-4-(5-Chloro-2-((1-(1-methylpiperidin-4-yl)-1H-pyrazol-4-yl)amino)pyrimidin-4-yl)-N-(1-cyanoethyl)benzamide]
6 | 6360 |  | 203 | < 0.25 | 1.66 | 35400 |  | 10.4 |  |  | Cc1cnc(Nc2cnn(C3CC(C)(C)OC(C)(C)C3)c2)nc1-c1ccc(C(=O)NCC#N)cc1 [Example 113, N-(cyanomethyl)-4-(5-methyl-2-((1-(2,2,6,6-tetramethyltetrahydro-2H-pyran-4-yl)-1H-pyrazol-4-yl)amino)pyrimidin-4-yl)benzamide]
7 |  | 3940 |  | 1450 | > 5000 |  | 4540 |  |  |  | Cc1cnc(Nc2cnn(C)c2)nc1-c1ccc(C(=O)NC(C)C)cc1 [Example 223, N-isopropyl-4-(5-methyl-2-((1-methyl-1H-pyrazol-4-yl)amino)pyrimidin-4-yl)benzamide]
8 |  | 7.29 | 8.84 | 4.48 | 58.9 |  | 25.3 |  |  |  | N#CCNC(=O)c1ccc(-c2nc(Nc3cnn(C4CC4)c3)ncc2Cl)cc1 [Example 95, 4-(5-Chloro-2-((1-cyclopropyl-1H-pyrazol-4-yl)amino)pyrimidin-4-yl)-N-(cyanomethyl)benzamide]
9 |  | 8.64 |  | 2.79 | 43.3 |  | 31.4 |  |  |  | C[C@@H](C#N)NC(=O)c1ccc(-c2nc(Nc3cnn(C4CC4)c3)ncc2Cl)cc1 [Example 111, (S)-4-(5-Chloro-2-((1-cyclopropyl-1H-pyrazol-4-yl)amino)pyrimidin-4-yl)-N-(1-cyanoethyl)benzamide]
10 |  | 11.8 | 12.3 | 24.4 | 98.4 |  |  |  | 0.7 |  | Cn1cc(Nc2ncc(Cl)c(-c3ccc(C(=O)NCC#N)cc3)n2)cn1 [Example 34, 4-(5-Chloro-2-((1-methyl-1H-pyrazol-4-yl)amino)pyrimidin-4-yl)-N-(cyanomethyl)benzamide]
11 | > 50000 | 0.61 | 11.4 | 0.37 | 1.34 | > 50000 |  |  |  |  | CC[C@@H](C#N)NC(=O)c1ccc(-c2nc(Nc3cnn(C4CCN(C)CC4)c3)ncc2C)cc1 [Example 184, (S)—N-(1-Cyanopropyl)-4-(5-methyl-2-((1-(1-methylpiperidin-4-yl)-1H-pyrazol-4-yl)amino)pyrimidin-4-yl)benzamide]
12 | > 50000 | 8.75 | 1.22 | 43 | 62.9 | > 50000 | 109 |  | 2.04 | 1.73 | Cc1cnc(Nc2cnn(CC#N)c2)nc1-c1ccc(C(=O)NCC#N)cc1 [Example 4, N-(Cyanomethyl)-4-(2-((1-(cyanomethyl)-1H-pyrazol-4-yl)amino)-5-methylpyrimidin-4-yl)benzamide]
13 |  | 18.9 | 21.9 | 41.2 | 146 |  |  |  | 1.48 |  | C[C@@H](C#N)NC(=O)c1ccc(-c2nc(Nc3cnn(C)c3)ncc2Cl)cc1 [Example 125, (S)-4-(5-chloro-2-((1-methyl-1H-pyrazol-4-yl)amino)pyrimidin-4-yl)-N-(1-cyanoethyl)benzamide]
14 |  | > 5000 |  | 4520 | > 5000 |  | > 5000 |  | 149 | 1890 | CCNC(=O)c1ccc(-c2nc(Nc3cnn(C)c3)ncc2C)cc1 [Example 222, N-ethyl-4-(5-methyl-2-((1-methyl-1H-pyrazol-4-yl)amino)pyrimidin-4-yl)benzamide]
15 |  | > 5000 |  | > 5000 | > 5000 |  | > 5000 |  | 30 |  | CNC(=O)c1ccc(-c2nc(Nc3cnn(C)c3)ncc2C)cc1 [Example 10, N-Methyl-4-(5-methyl-2-((1-methyl-1H-pyrazol-4-yl)amino)pyrimidin-4-yl)benzamide]
